# Measured values published in patent publication US20060063720A1, “Oxaliplatin solution concentrate” (priority 2004, published 2006).
# Legend:
# [1] = Solubility of oxaliplatin in aqueous carbohydrate solutions (saturated solution supernatant, HPLC; pH of saturated solution); conditions: for Oxaliplatin concentration of the saturated solution: pH not adjusted; for pH of the saturated solution: oxaliplatin-saturated
# [2] = cited from earlier work
smiles,measurement,setting,value
"O=C1[O][Pt-2]2([NH2+]C3CCCC[C@H]3[NH2+]2)[O]C1=O (stereo partly drawn) [Oxaliplatin, cis-oxalato-(trans-1,2-cyclohexanediamine)-platinum(II)]",Oxaliplatin concentration of the saturated solution,[1]; 0% Glucose,7.66 mg/mL
same,Oxaliplatin concentration of the saturated solution,[1]; 5% Glucose,8.14 mg/mL
same,Oxaliplatin concentration of the saturated solution,[1]; 10% Glucose,10.74 mg/mL
same,Oxaliplatin concentration of the saturated solution,[1]; 10% Lactose,10.12 mg/mL
same,Oxaliplatin concentration of the saturated solution,[1]; 10% Trehalose,10.32 mg/mL
same,Oxaliplatin concentration of the saturated solution,[1]; 20% Glucose,11.85 mg/mL
same,Oxaliplatin concentration of the saturated solution,[1]; 25% Dextran 10,10.90 mg/mL
same,Oxaliplatin concentration of the saturated solution,[1]; 25% Dextran 40,10.85 mg/mL
same,Oxaliplatin concentration of the saturated solution,[1]; 25% Dextran 70,10.90 mg/mL
same,Oxaliplatin concentration of the saturated solution,[1]; 25% Galactose,11.53 mg/mL
same,Oxaliplatin concentration of the saturated solution,[1]; 30% Glucose,12.66 mg/mL
same,Oxaliplatin concentration of the saturated solution,[1]; 40% Glucose,13.54 mg/mL
same,Oxaliplatin concentration of the saturated solution,[1]; 50% Fructose,12.56 mg/mL
same,Oxaliplatin concentration of the saturated solution,[1]; 50% Maltose,17.83 mg/mL
same,solubility,"[1]; aqueous solution, 25 °C, water",7000 to 8000 µg/mL
same,solubility,"[1]; aqueous solutions with solubilizers, aqueous with cosolvent or surfactant or cyclodextrin",> 7000 µg/mL
same,Oxaliplatin concentration obtained with adjuvants,"[1]; glucose, maltose, fructose, galactose, dextran 10, 40, 70, polyethylene glycol 200, 300, 400 and 600 as adjuvants",more than 7 mg/ml solvent
same,pH of the saturated solution,[1]; 0% Glucose,pH 6.1
same,pH of the saturated solution,[1]; 5% Glucose,pH 5.9
same,pH of the saturated solution,[1]; 10% Glucose,pH 5.8
same,pH of the saturated solution,[1]; 10% Lactose,pH 4.3
same,pH of the saturated solution,[1]; 10% Trehalose,pH 4.6
same,pH of the saturated solution,[1]; 20% Glucose,pH 5.7
same,pH of the saturated solution,[1]; 25% Dextran 10,pH 4.8
same,pH of the saturated solution,[1]; 25% Dextran 40,pH 4.2
same,pH of the saturated solution,[1]; 25% Dextran 70,pH 4.1
same,pH of the saturated solution,[1]; 25% Galactose,pH 6.3
same,pH of the saturated solution,[1]; 30% Glucose,pH 5.6
same,pH of the saturated solution,[1]; 40% Glucose,pH 5.6
same,pH of the saturated solution,[1]; 50% Fructose,pH 4.7
same,pH of the saturated solution,[1]; 50% Maltose,pH 3.7
same,solubility,[1]; water,~7500 µg/mL
same,Maximum concentration of oxaliplatin in water,"[1]; with additional dissolved tonic, pH-adjusting, buffering or preserving adjuvants",7 mg/mL
same,Stability in water,[2]; at least at concentrations below 1 mg/ml,not very stable
same,Solubility in ethanol,[2]; ethanol,practically insoluble
same,Solubility in methanol,[2]; methanol,scarcely soluble
same,Solubility in water,[2]; water,soluble
